Experiment in all cases: inhibition of tumour cell growth, NCI panel, 48 h
The subject of assay [1] is M14 melanoma.
The test system of assay [2] is NCI/ADR-RES ovarian.
Assay [3] relates to SK-MEL-2 melanoma.
The test system of assay [4] is SNB-19 CNS.
Assay [5] relates to EKVX NSCLC.
The subject of assay [6] is CAKI-1 renal.
Assay [7] relates to HCC-2998 colon.
In assay [8] the test system is SR leukemia.
The test system of assay [9] is SW-620 colon.
Assay [10] concerns COLO 205 colon.

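Method: 48-hour compound exposure of cells in 96-well plates, five concentrations, linear interpolation of endpoints. GI50 is the concentration that inhibits growth by half. TGI is the concentration that stops growth completely.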

Take `C=CCOc1cccc(/C=C2\SC(=Nc3ccc(O)cc3)NC2=O)c1`: the GI50 was 0.384 µM in assay [1]; 0.494 µM in [2]; 2.91 µM in assay [3]; 0.531 µM in [4]; 1.47 µM in assay [5]; 0.466 µM in [6]. Further, the GI50 is 1.15 µM in assay [7], 0.108 µM in assay [8], 0.383 µM in assay [9] and 2.64 µM in assay [10]. Moreover, the TGI in assay [1] was 22.9 µM; in assay [2] it was 17.1 µM; in [3] it was 18.5 µM; in [4] it was 36.8 µM; in assay [5], > 100 µM; in assay [6] it was 6.43 µM. The TGI is 9.22 µM in [7], > 63.7 µM in [8], > 80.1 µM in assay [9] and 11.1 µM in assay [10].
For `COc1cccc(-n2ncc3c(N/N=C/c4ccc(C(=O)NCCN(C)C)cc4)ncnc32)c1`, the GI50 is 1.8 µM in [1]; 5.25 µM in assay [2]; > 9.86 µM in [3]; 5.07 µM in assay [4]; 4.31 µM in assay [5]; 1.27 µM in [6]. In addition, the GI50 in assay [7] is 4.66 µM; in assay [8], 2.29 µM; in assay [9], 4.73 µM; in assay [10] it was 0.605 µM. The TGI is 5.55 µM in assay [1]; 11.2 µM in assay [2]; > 13.9 µM in assay [3]; 9.75 µM in assay [4]; 8.57 µM in [5]; 5.48 µM in [6]. For the same molecule, the TGI was 8.58 µM in assay [7], > 13.9 µM in [8], 9.06 µM in [9] and 3.2 µM in [10].
Regarding `CC1OC(O[C@@H]2OC=C(C=O)[C@@]3(O)CC[C@H](C)[C@@H]23)C(O)C(O)C1O` (stereo not given in full), the TGI in [1], in [2], in assay [3], in assay [4], in assay [5] and in [6] was > 100 µM throughout. In addition, the TGI in [7], in [8], in assay [9] and in assay [10] was > 100 µM throughout.
As for `Cc1ccc(N=Nc2c(O)c(C(=O)O)cc3ccccc23)cc1C`, the TGI in [1], in assay [2], in assay [3], in assay [4], in assay [5] and in assay [6] was > 100 µM in each case. Also, the TGI in [7], in assay [8], in assay [9] and in [10] was > 100 µM throughout.
Consider `COC(=O)[C@@]1(C)CC[C@]2(C)CC[C@]3(C)C4=CC=C5C(=CC(=O)C(O)=C5C)[C@]4(C)[C@@H](O)C[C@@]3(C)[C@@H]2C1`, for which the GI50 in assay [1] is 9.74 µM; in [2] it was 15.3 µM; in assay [3], 11.2 µM; in assay [4], 12.4 µM; in assay [5], 12.9 µM; in [6] it was 3.94 µM. Further, the GI50 in assay [7] is 13 µM; in [8], 2.69 µM; in [9], 9.27 µM; in assay [10], 7.36 µM. The TGI in assay [1] came to 22.2 µM; in [2], 34.8 µM; in assay [3], 23.2 µM; in assay [4], 23.8 µM; in assay [5], 25.2 µM; in assay [6], 13.9 µM. The TGI in [7] came out at 25.2 µM; in [8], 19 µM; in assay [9], 20.2 µM; in [10], 22.2 µM.
Consider `CCCCCCCCN=C(N)c1ccc(N2CCN(c3ccc(C(N)=NCCCCCCCC)cc3)CC2)cc1`, for which the GI50 in [1] is 1.76 µM; in [2] it was > 50 µM; in assay [3] it was 1.69 µM; in assay [4], 2.16 µM; in assay [5] it was 1.55 µM; in assay [6], 1.28 µM. Further, the GI50 was 2.06 µM in [7], 0.97 µM in [8], 1.76 µM in assay [9] and 1.49 µM in [10]. Moreover, the TGI in [1] is 6.68 µM; in assay [2], > 50 µM; in assay [3], > 50 µM; in [4] it was 14.6 µM; in [5], 8.75 µM; in assay [6], 3.68 µM. Moreover, the TGI in assay [7] stood at 8.79 µM; in assay [8] it was 2.26 µM; in [9] it was 16.8 µM; in assay [10], 19.2 µM.
On to `NCCn1c(=O)[nH]c(=O)[nH]c1=S`, for which the GI50 in assay [1], in assay [2], in assay [3], in [4], in assay [5] and in assay [6] was > 100 µM each time. The GI50 in assay [7], in assay [8], in assay [9] and in [10] was > 100 µM throughout. In addition, the TGI in assay [1], in assay [2], in [3], in assay [4], in assay [5] and in [6] was > 100 µM each time. For the same molecule, the TGI in assay [7], in assay [8], in [9] and in [10] was > 100 µM in each case.
As for `COc1cc(/C=C/c2cc(O)c3cc(C(C)=O)c(=O)oc3c2)cc2c1O[C@]1(C)CC[C@@H](O)C(C)(C)[C@H]1C2`, the TGI in [1] is > 20.2 µM; in [2], > 88.9 µM; in [3] it was > 45.8 µM; in [4] it was > 95.4 µM; in assay [5], > 64.1 µM; in assay [6], > 39.4 µM. In addition, the TGI is > 48.7 µM in assay [7], > 100 µM in [8], > 34.7 µM in [9] and > 59.8 µM in assay [10]. The GI50 in assay [2] is > 36.4 µM; in [4], > 21.9 µM; in assay [5] it was > 32.5 µM; in assay [7], > 28.2 µM; in [10], > 27.5 µM.
